Assay results as given in US11413267B2, “Methods and compositions for inhibition of ATR and FANCD2 activation” (priority 2012, dated 2022).

Columns and labels:
[1] = system: MDA-MB-231 cells; test: Mitotic entry assay (phospho-histone H3 Ser10, nocodazole trap, flow cytometry); format: cell-based, human
Text: Of these, the G2/M checkpoint involves ATM and ATR in collaboration, whereas the S/M checkpoint is mediated solely by ATR. To maintain genetic integrity, ATR can prevent premature mitotic entry in the event of incomplete DNA replication or unrepaired DNA damage. In order to evaluate the effect of benzopyran-4-one derivatives on these ATR-associated DNA damage checkpoints, we observed the effect of benzopyran-4-one derivatives on mitotic entry following hydroxyurea or cisplatin treatment.
DNA replication was measured using a Click-it EdU assay kit, which is based on incorporation of the thymidine analogue 5-ethynyl-2′-deoxyuridine (EdU) into DNA during replication (Invitrogen). Then, 10 μM EdU was added to the cell culture medium 30 min before the cells were harvested and fixed in 4% paraformaldehyde. After cycloaddition, EdU was detected with Alexa Fluor 647 using click reaction catalyzed by Cu (II), and the DNA content was stained by CellCycle 405-blue. To assay the mitotic entry, cells were treated with the indicated drugs and trapped in 70 nM nocodazole for 16 h, and antibodies against phospho-histone H3 Ser10 and PI were used to stain the mitotic cells and DNA content, respectively. An FITC Annexin V apoptosis detection kit was used to characterize the phenotype of cell death based on PI and Annexin V double staining (BD Pharmingen, San Diego, Calif.). Fluorescence-labeled cells were subsequently analyzed by the BD LSR II flow cytometer with a suitable selection of excitation and emission wavelengths. The percentages of different fluorescent cells were analyzed using WinMDI Ver. 2.9.

[2] = system: synchronized cells; test: Double-thymidine cell cycle synchronization assay (flow cytometry); format: cell-based; conditions: for Percentage of G2/M cells compared with control group, in words: 9 hours of treatment after release
Text: ATR are involved in DNA replication. […] In the results of double-thymidine cell cycle synchronization assay, according to the Table 4 which sorted out from FIGS. 21-23, the unsynchronized cells (FIG. 21(a)) become synchronization by using this method, and 97% of cells were stopped at G1/S boundary after two cycles of thymidine blocks (FIG. 21(b)). Those synchronized cells released from thymidine blockade and allowed progress into S phase in presence or absence of protoapigenone (I-1) and compound II-1.
To evaluate the effect of DNA damage checkpoint activation on cell cycle distribution, the cells were harvested at indicated time points and fixed with methanol for at least 2 h. The DNA was then stained with a solution containing propidium iodide (PI) and RNase A (Sigma-Aldrich). Fluorescently labeled cells were subsequently analyzed by the flow cytometer (LSR II; BD Biosciences) with a suitable selection of excitation and emission wavelengths. The percentages of different fluorescent cell populations were analyzed using WinMDI Ver. 2.9 (The Scripps Research Institute).

[3] = system: ATM-mediated Chk2 phosphorylation; test: Immunoblot of DNA damage-induced Chk2 phosphorylation / ATM autophosphorylation; format: cell-based, human; conditions: for UV-induced or H2O2-induced Chk2 phosphorylation: HEK293T cells with siRNAs against ATM and DNA-PKcs
Text: We hypothesized that genes with functions associated with DNA damage checkpoints and/or DNA repair might be targeted by benzopyran-4-one derivatives. To test this hypothesis, we assessed the effects of benzopyran-4-one derivatives on DDR induced by H2O2. […] In response to DNA double-strand breaks (DSBs), FANCD2 is known to be monoubiquitinated on K561 (FANCD2-Ub) in an ATR-dependent manner to stimulate repair (Andreassen P R, et al. Genes Dev 2004).
To elucidate the specificity of the benzopyran-4-one derivatives inhibition on ATR-mediated signaling, we compared the change between cells treated with benzopyran-4-one derivatives or the ATM-specific inhibitor KU55933 before the induction of DDR.
MDA-MB-231 (breast adenocarcinoma; ATCC HTB-26, BCRC 60425) and A549 (lung adenocarcinoma; ATCC CCL-185, BCRC 60074) human cell lines were purchased from Bioresource Collection and Research Center (BCRC, Hsinchu, Taiwan), and were authenticated by American Type Culture Collection (ATCC, Manassas, Va.). U2OS (osteosarcoma), HeLa (cervical adenocarcinoma), and HEK 293T (embryonic kidney cells) human cell lines were provided by Dr. Sheau-Yann Shieh (Institute of Molecular Biology, Academia Sinica, Taipei, Taiwan). Cells were maintained in Dulbecco's modified Eagle's medium (DMEM, Sigma-Aldrich) supplemented with 10% fetal bovine serum (FBS) (Gibco). […] For UV irradiation treatment, the cells were irradiated for 10 J/m^2 by a cross-linker (UVP) 1 h prior to analysis.
Cell lysate preparations, gel electrophoresis, and immunoblotting were performed as previously described (23). The binding of primary antibodies were detected by horseradish peroxidase-coupled secondary antibodies (Jackson ImmunoResearch) followed by enhanced chemiluminescence (ECL) (Millipore). The images of non-saturated bands were captured using a luminescent image analyzer (LAS-4000 mini; Fujifilm). The antibodies used in this study are listed in supplementary materials.

[4] = system: MDA-MB-231 tumor xenograft; test: Human xenograft tumors in nude mice; format: in vivo
Text: Inhibition of the checkpoint and repair mechanisms leads to chemosensitization in cancers. […] We further treated individual cells with cisplatin in combination with several varying doses of benzopyran-4-one derivatives, and counted survival colonies to determine their ability to survive after cisplatin-induced damage. […] To investigate the chemosensitization effect of low-dose benzopyran-4-one derivatives in vivo, we established a tumor xenograft in nude mice using human MDA-MB-231 tumor cells, which are considered to be more resistant to cisplatin and are also sensitive to treatment with benzopyran-4-one derivatives, at least as compared to A549 cells (FIGS. 4, 17(a) and 17(b)). […] The pharmacokinetic data of Protoapigenone (I-1) and compound II-1 needs to be compared in future studies to determine the differences in the chemical effects of these 2 compounds in vitro and in vivo.
Human breast cancer MAD-MB-231 cells were harvested from the culture, resuspended in medium without serum at 1×10^8 cells/mL, and 0.1 mL of this suspension was subcutaneously injected into the right flank of female nude mice (BALB/cAnN-Foxn1nu/Crl Narl; purchased from the National Science Council Animal Center, Taiwan). Tumor-injected mice that successfully developed tumors that grew to approximately 50-100 mm^3 in volume were randomly sorted into groups and used for the experiments. […]

[5] = compound alone (Control group, no DNA-damaging agent)
[6] = compound with Cisplatin (G2/M checkpoint)
[7] = compound with Hydroxyurea (S/M checkpoint)
[8] = 6 hrs after release from synchronization
[9] = 9 hrs after release from synchronization
[10] = A594 cells, 0.1 mM H2O2 for 2 h

| SMILES | The percentage of mitotic cells [1, 5] [%] | The percentage of mitotic cells [1, 6] [%] | The percentage of mitotic cells [1, 7] [%] | Cell cycle G1 [2, 8] [%] | Cell cycle G2M [2, 8] [%] | Cell cycle S [2, 8] [%] | Percentage of G2/M cells compared with control group, in words [2] | Cell cycle G1 [2, 9] [%] | Cell cycle G2M [2, 9] [%] | Cell cycle S [2, 9] [%] | ATM autophosphorylation [3, 10] | Chk2 phosphorylation [3, 10] | UV-induced or H2O2-induced Chk2 phosphorylation [3] | Cisplatin sensitivity of MDA-MB-231 tumors ([4]; 2 mg/kg (data not shown)) | Tumor inhibitory effect ([4]; 0.2 mg/kg with 2 mg/kg cisplatin, intraperitoneally every 4 d) |
| --- | --- | --- | --- | --- | --- | --- | --- | --- | --- | --- | --- | --- | --- | --- | --- |
| O=C1C=CC(O)(c2cc(=O)c3c(O)cc(O)cc3o2)C=C1 [Compound I-1, Protoapigenone] | 23.69 ± 0.94 | 7.99 ± 0.91 | 3.40 ± 0.41 | 25.45 | 0.41 | 69.13 | significantly reduce | 21.41 | 16.46 | 60.89 | not affected | promote | not altered | did not affect the cisplatin sensitivity |  |
| O=C1C=CC(O)(c2cc(=O)c3c(ccc4ccccc43)o2)C=C1 [Compound II-1, 3-(1-hydroxy-4-oxo-cyclohexa-2,5-dienyl)-1H-benzo[f]chromen-1-one] | 12.05 ± 0.68 | 8.14 ± 0.99 | 10.49 ± 1.17 | 21.72 | 4.59 | 72.01 | significantly reduce | 15.50 | 20.45 | 63.06 |  |  | increased |  | greater than that of cisplatin treatment alone |
